From US20240181000A1, “LGG-DERIVED PEPTIDES AND METHODS OF USE THEREOF” (Ohio State Innovation Foundation, priority 2021, published 2024)
Marks after values point to notes of the source that are not given here. No end group written: not given here.

What was measured:
[1] = system: ST; type: in vivo, chickens; conditions: for Reduction of percent of birds positive for ST in the liver: 50 mg/kg twice daily
Method: Efficacy of peptides in chickens: To assess the efficacy of peptides against ST in chickens, one-day-old specific pathogen free (SPF) layer chickens from a Salmonella free flock at The Ohio State University were obtained and provided with feed and water ad libitum. Chickens (n=10/group) were treated with P1, P2, or P4 at 50 mg/kg body weight twice-daily doses. Peptides were dissolved in water to reach final concentration of 50 mg/kg and orally administered from day 1 to day 7. Early intestinal colonization is important for poultry health and thus is why peptide treatment was begun at day 1. Birds were challenged with 10^4 CFU of nalidixic acid resistant ST on day 3. At day 10 [7 days post infection (dpi)] chickens were euthanized, and the cecum, liver, and spleen were collected to determine the peptide's ability to reduce ST infection. The cecum was suspended in PBS, homogenized, ten-fold serially diluted, and plated on XLT4 agar plates supplemented with 50 μg/ml nalidixic acid and incubated for 24 h at 37° C. The liver and spleen were individually suspended in PBS and the undiluted homogenized suspension was plated directly and incubated for 24 h at 37° C. One milliliter of the undiluted homogenized liver and spleen was enriched in 9 ml of tetrathionate broth (TTB) for 24 h at 37° C. After incubation they were plated as described above to enumerate ST in each tissue. The body weights of chickens were measured on the day of necropsy (day 10). An untreated positive control group (PC: infected but untreated) and a negative control group (NC: non infected and non-treated) were included in the study. A Mann-Whitney test was used to determine statistical significance (P<0.05) of treatment on ST load in cecum and on body weight.

[2] = system: cecal microbiota; assay: Cecal microbiome analysis (peptides, ST infected); type: in vivo, chickens; conditions: for Relative Abundance (%) Acinetobacter / Relative Abundance (%) Blautia / Relative Abundance (%) Caproiciproducens / Relative Abundance (%) Enterobacteriaceae (unidentified) / Relative Abundance (%) Epulopiscium / Relative Abundance (%) Lachnospiraceae (unidentified) / Relative Abundance (%) Lachnospiraceae NK4A136 group / Relative Abundance (%) Lactobacillus / Relative Abundance (%) Sellimonas / Relative Abundance (%) [Clostridium] innocuum group / Relative Abundance (%) [Eubacterium] coprostanoligenes group / Relative abundance (%) Anaerotruncus / Relative abundance (%) Clostridium sensu stricto 1 / Relative abundance (%) Enterococcus / Relative abundance (%) Erysipelatoclostridium / Relative abundance (%) Escherichia-Shigella / Relative abundance (%) Flavonifractor / Relative abundance (%) Lachnospiraceae (uncultured) / Relative abundance (%) Oscillibacter / Relative abundance (%) Pediococcus / Relative abundance (%) Ruminiclostridium 5 / Relative abundance (%) Ruminiclostridium 9 / Relative abundance (%) Ruminococcus torques group: genus
Method: Cecal microbiome analysis: To evaluate the role P1, P2, and P4 (50 mg/kg) treatment on the cecal microbiome of chickens, 16S rRNA based metagenomic study was conducted as previously described. DNA was extracted from approximately 0.2 g of cecal content using PureLink™ Microbiome DNA Purification Kit (Thermofisher Scientific). After which, RNA was removed with the treatment of RNase A (2 μL of 100 mg/mL solution per sample: Qiagen). NanoDrop 2000c Spectrophotometer (ThermoFisher Scientific) was used to check the quality and measure the quantity of the DNA. The extracted DNA was used in 16S rRNA V4-V5 sequencing done at MCIC (mcic.osu.edu/genomics/illumina-sequencing). Amplicon libraries were prepared using IFU KAPA HiFi HotStart ReadyMixPCR Kit (Roche). PCR products were cleaned using Agencourt AMPure XP beads (BECKMAN COULTER Life Sciences). Nextera XT DNA Library Preparation Kit (Illumina) was used to generate Illumina library and sequencing done with Illumina MiSeq platform generating paired end 300-bp reads. QIIME 2 (Quantitative Insights Into Microbial Ecology) bioinformatics platform (qiime2.org/) was used to conduct metagenomic analysis. Quality control of the raw reads was performed using FastQC 0.11.8 (Babraham Bioinformatics). Trimmomatic-0.33 was used to trim the adaptor and other Illumina-specific sequences (www.usadellab.org/cms/?page=trimmomatic). After which trimmed sequences (fastq.gz) were then imported into QIIME 2 as a manifest file format (PairedEndManifestPhred33V2). DADA2 was then used for the feature table construction and additional filtering of sequences. Taxonomic analysis was performed using Naive Bayes classifiers trained on the Silva 132 99% OTUs (silva-132-99-nb-classifier.qza) database. Phylogenetic diversity was analyzed using align-to-tree-mafft-fasttree pipeline. Additionally, Shannon's diversity index (alpha diversity) and Bray-Curtis distance (beta diversity) were analyzed using core-metrics-phylogenetic pipeline (docs.qiime2.org/2019.7/tutorials/moving-pictures/). Alpha and beta diversity statistical significance were analyzed using Kruskal-Wallis and PERMANOVA tests (P<0.05), respectively. The statistical difference (P<0.05) in the taxonomic composition between the groups was determined using Mann Whitney Test.

[3] = system: Salmonella enterica subsp. enterica serovar Enteritidis (SE); type: cell-based; conditions: No treatment
Method: MIC was determined by selecting peptide concentration at which there is no increased growth (no increase in OD), given indication of no ST growth. An independent repeat experiment was conducted.
Heat and protease tolerance of peptides: P1, P2, and P4 were heated for 6 minutes at 86° C. or treated with protease proteinase K, 200 μg/mL at 50° C. for 30 minutes. After which, the treated and/or heated peptides at their respective MICs were evaluated in the inhibition assay with Salmonella. The protocol from above was repeated in the Tecan with the same controls.
To analyze the perceived efficacy of arginine and lysine substitutes reported in previous studies, specific amino acid residues in P1 and P2 were replaced with lysine or arginine to test if the alliterations enhanced anti-Salmonella (ST and SE) activity. The MICs of the arginine or lysine substituted peptides ([…] (SEQ ID NO:37), […] (SEQ ID NO:38), […] (SEQ ID NO:39), KDENK (SEQ ID NO:41), PDEKK (SEQ ID NO:42), KDEKK (SEQ ID NO:43), KHTAPK (SEQ ID NO:45)) were determined as described early. Two independent experiments were conducted to ensure accuracy.

| Substance | Reduction of percent of birds positive for ST in the liver [1] | Relative Abundance (%) Acinetobacter [2] | Relative Abundance (%) Blautia [2] | Relative Abundance (%) Caproiciproducens [2] | Relative Abundance (%) Enterobacteriaceae (unidentified) [2] | Relative Abundance (%) Epulopiscium [2] | Relative Abundance (%) Lachnospiraceae (unidentified) [2] | Relative Abundance (%) Lachnospiraceae NK4A136 group [2] | Relative Abundance (%) Lactobacillus [2] | Relative Abundance (%) Sellimonas [2] | Relative Abundance (%) [Clostridium] innocuum group [2] | Relative Abundance (%) [Eubacterium] coprostanoligenes group [2] | Relative abundance (%) Anaerotruncus [2] | Relative abundance (%) Clostridium sensu stricto 1 [2] | Relative abundance (%) Enterococcus [2] | Relative abundance (%) Erysipelatoclostridium [2] | Relative abundance (%) Escherichia-Shigella [2] | Relative abundance (%) Flavonifractor [2] | Relative abundance (%) Lachnospiraceae (uncultured) [2] | Relative abundance (%) Oscillibacter [2] | further results |
| --- | --- | --- | --- | --- | --- | --- | --- | --- | --- | --- | --- | --- | --- | --- | --- | --- | --- | --- | --- | --- | --- |
| MLNERVK [Peptide P4, MLNERVK] | 30% | 0.00% | 1.60% | 0.00% | 4.54% | 0.00% | 44.19% | 0.53% | 7.01% | 0.57% | 0.00% | 0.00% | 0.48% | 0.00% | 0.00% | 3.51% | 3.16† % | 1.20% | *11.71% | 1.35% | Relative abundance of Lachnospiraceae ([2]; family, negative control 53%): 78%; Relative abundance (%) Pediococcus [2]: 0.75%; Relative abundance (%) Ruminiclostridium 5 [2]: 0.00%; Relative abundance (%) Ruminiclostridium 9 [2]: 0.13† %; Relative abundance (%) Ruminococcus torques group [2]: 19.27% |
| PDENK [Peptide P2, PDENK] | 30% | 0.00% | 0.00% | 0.63% | 6.22% | 0.17% | 37.10% | 0.00% | 5.57% | 1.76% | 0.00% | 0.00% | 0.00% | 0.00% | 0.00% | 5.56% | 13.25% | 2.33% | 4.21% | 0.00% | MIC against SE [3]: 15 mM; Reduction of ST colonization in the cecum ([1]; 50 mg/kg twice daily 7 days, day 10 (7 dpi)): 1.8 logs; Relative abundance (%) Pediococcus [2]: 0.00%; Relative abundance (%) Ruminiclostridium 5 [2]: 0.00%; Relative abundance (%) Ruminiclostridium 9 [2]: 0.00† %; Relative abundance (%) Ruminococcus torques group [2]: 23.19% |
